In ChEMBL document CHEMBL1201862, “PubChem BioAssay data set” (2004):
Activity calls are given as the source filed them.

Legend:
[1] = target: T1, DNA repair protein RAD52 homolog (Homo sapiens, UniProt P43351); format: functional, biochemical
T1 sequence (P43351 whole entry): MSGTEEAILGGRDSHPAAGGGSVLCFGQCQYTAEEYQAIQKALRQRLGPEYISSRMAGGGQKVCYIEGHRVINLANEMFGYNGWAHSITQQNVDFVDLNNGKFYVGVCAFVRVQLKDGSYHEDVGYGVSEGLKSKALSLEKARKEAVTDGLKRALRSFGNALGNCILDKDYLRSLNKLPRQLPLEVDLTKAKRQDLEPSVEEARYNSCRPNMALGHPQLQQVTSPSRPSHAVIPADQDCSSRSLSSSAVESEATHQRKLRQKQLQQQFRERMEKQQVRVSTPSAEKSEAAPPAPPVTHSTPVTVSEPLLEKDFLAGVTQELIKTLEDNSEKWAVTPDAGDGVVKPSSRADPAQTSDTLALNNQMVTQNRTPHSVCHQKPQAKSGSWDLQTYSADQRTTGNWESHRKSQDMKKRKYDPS

[2] = target: FAD-linked sulfhydryl oxidase ALR (Homo sapiens, UniProt P55789); assay: inhibitors of human ALR sulfhydryl oxidase, dose response, biochemical, H2O2 detection, luminescence, cherry-pick (AID 493248)
[3] = target: T2, Ubiquitin-conjugating enzyme E2 N (Homo sapiens, UniProt P61088); format: functional;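 also: Dose-response confirmation in a TR-FRET assay detecting UBC13-driven polyubiquitin chain formation, inhibition measured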
T2 sequence (P61088 whole entry): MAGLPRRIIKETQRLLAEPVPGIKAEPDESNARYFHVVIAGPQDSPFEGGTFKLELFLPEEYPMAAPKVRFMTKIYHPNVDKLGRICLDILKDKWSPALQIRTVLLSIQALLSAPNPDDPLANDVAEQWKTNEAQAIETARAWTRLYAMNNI

[4] = microbe, parasite or virus in culture; format: functional; settings: Mycobacterium tuberculosis
[5] = target: Hepatocyte nuclear factor 4-alpha (Homo sapiens, UniProt P41235); format: functional, cell-based;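 also: biochemical luminescence-based dose-response counterscreen measuring inhibition of HNF4 dimerization, run alongside a screen for blockers of ABHD5–perilipin-5 interaction; split luciferase complementation of HNF4 fusion proteins in cell lysate measuring dimerization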
[6] = target: T3, Interleukin-8 (Homo sapiens, UniProt P10145); assay: Dose Response confirmation of uHTS small molecule hits for cystic fibrosis induced NFkb Inhibitors in a TNFa-induced IL8 counterscreen.; format: functional; settings: read-out: IC50_Mean
T3 sequence (P10145 whole entry): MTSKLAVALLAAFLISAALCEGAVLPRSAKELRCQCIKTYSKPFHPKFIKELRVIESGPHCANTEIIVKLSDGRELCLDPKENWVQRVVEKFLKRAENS

[7] = system: HeLa; assay: HeLa cell cytotoxicity, dose response, cytotoxicity control for MITF activator project, CellTiter-Glo luminescence, cherry-pick samples (AID 540259); format: functional, cell-based; settings: Homo sapiens
[8] = target: Cytochrome P450 2C19 (Homo sapiens, UniProt P33261); assay: Cytochrome panel assay with activity outcomes. Panel member name: p450-cyp2c19 Compounds with AC50 equal or less than 10 uM are considered active; format: functional; settings: read-out: AC50
[9] = target: T3, Interleukin-8; assay: Dose Response confirmation of uHTS small molecule hits for cystic fibrosis induced NFkb Inhibitors in a PAF-induced IL8 counterscreen.; format: functional; settings: read-out: IC50_Mean
[10] = target: T4, Protein disulfide-isomerase (Homo sapiens, UniProt P07237); assay: PDI inhibitors, insulin aggregation turbidity, dose response, biochemical, absorbance, cherry-picked samples (AID 602350); format: functional
[11] = target: T4, Protein disulfide-isomerase; assay: PDI inhibitors, insulin turbidity readout, dose response, biochemical, absorbance, cherry-picked samples, set 2 (AID 624274); format: functional
[12] = target: Aryl hydrocarbon receptor (Homo sapiens, UniProt P35869); settings: Potency;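 also: confirmatory quantitative high-throughput screen measuring activation of the AhR signaling pathway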
[13] = target: Diacylglycerol lipase-beta (Mus musculus, UniProt Q91WC9); assay: Late stage assay provider results from the probe development effort to identify inhibitors of diacylglycerol lipase, beta (DAGLb): fluorescence-based dose-response biochemical gel-based competitive Activity-Based Protein Profiling (ABPP) inhibition of DAGLb in vitro.; format: functional
[14] = target: Prothrombin (Bos taurus, UniProt P00735); assay: thrombin inhibition, dose response, biochemical, fluorescence polarization, uHTS hits (AID 602369); format: functional
[15] = target: T5, Low molecular weight phosphotyrosine protein phosphatase (Homo sapiens, UniProt P24666); format: functional; settings: read-out: IC50_Mean
T5 sequence (P24666 whole entry): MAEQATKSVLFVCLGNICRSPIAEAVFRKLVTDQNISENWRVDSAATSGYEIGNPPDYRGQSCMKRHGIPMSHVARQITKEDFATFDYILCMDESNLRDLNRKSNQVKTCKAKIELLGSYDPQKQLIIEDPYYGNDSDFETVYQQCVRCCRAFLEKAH

[16] = target: T5, Low molecular weight phosphotyrosine protein phosphatase; format: functional; settings: read-out: IC50_Mean; remark: listed apart in the source
[17] = target: 26S proteasome non-ATPase regulatory subunit 14 (Homo sapiens, UniProt O00487); assay: inhibition of proteasome subunit RPN11 – biochemical, fluorescence polarization, uHTS hits, confirmation (AID 602368); format: functional
[18] = target: 72 kDa type IV collagenase (Homo sapiens, UniProt P08253); assay: Dose Response validation of uHTS RPN11 inhibitor hits using a MMP-2 Fluorescence assay.; format: functional
[19] = inhibitors of intracellular T. cruzi replication, confirmation, NIH3T3 host cells, beta-gal luminescence (AID 2044); format: functional, cell-based;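 also: intracellular parasites grown in NIH/3T3 mouse fibroblasts as host cells; luminescent beta-galactosidase reporter signal from transgenic T. cruzi replicating inside host cells; inhibitors lower the luminescence signal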
[20] = cells; format: functional, cell-based
[21] = target: T6, Insulin-degrading enzyme (Homo sapiens, UniProt P14735); assay: activators of endogenous IDE in HEK cells, dose response, cell-based, fluorescence polarization (AID 588439); format: functional
T6 sequence (P14735 whole entry): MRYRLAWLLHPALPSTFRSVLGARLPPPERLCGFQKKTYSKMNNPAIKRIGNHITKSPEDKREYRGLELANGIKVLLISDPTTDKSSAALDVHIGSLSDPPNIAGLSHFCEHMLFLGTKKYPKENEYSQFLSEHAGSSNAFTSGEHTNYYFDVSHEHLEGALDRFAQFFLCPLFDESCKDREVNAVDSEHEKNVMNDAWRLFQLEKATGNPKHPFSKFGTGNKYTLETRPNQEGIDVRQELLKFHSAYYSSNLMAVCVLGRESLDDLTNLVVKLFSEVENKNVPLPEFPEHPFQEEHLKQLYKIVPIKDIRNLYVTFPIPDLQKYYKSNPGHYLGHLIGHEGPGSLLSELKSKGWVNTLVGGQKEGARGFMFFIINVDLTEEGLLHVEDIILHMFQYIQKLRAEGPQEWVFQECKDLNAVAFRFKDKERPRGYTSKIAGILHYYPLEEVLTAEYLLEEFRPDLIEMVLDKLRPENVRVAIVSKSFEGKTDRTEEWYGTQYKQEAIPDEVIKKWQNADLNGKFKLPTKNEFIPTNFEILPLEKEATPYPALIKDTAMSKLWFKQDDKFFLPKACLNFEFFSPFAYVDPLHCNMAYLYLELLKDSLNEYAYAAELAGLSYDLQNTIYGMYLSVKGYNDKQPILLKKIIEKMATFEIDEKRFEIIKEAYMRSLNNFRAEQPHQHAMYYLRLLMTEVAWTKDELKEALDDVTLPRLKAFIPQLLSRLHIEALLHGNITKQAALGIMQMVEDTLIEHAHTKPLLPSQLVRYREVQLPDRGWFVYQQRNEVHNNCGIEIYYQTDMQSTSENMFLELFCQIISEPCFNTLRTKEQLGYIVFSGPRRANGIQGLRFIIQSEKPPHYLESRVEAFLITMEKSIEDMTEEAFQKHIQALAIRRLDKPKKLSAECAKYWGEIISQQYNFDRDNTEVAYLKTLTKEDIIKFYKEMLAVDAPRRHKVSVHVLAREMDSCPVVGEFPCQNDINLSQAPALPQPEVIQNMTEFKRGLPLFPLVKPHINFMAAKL

[22] = system: Streptococcus sp. 'group A'; assay: growth inhibition of control SK(-) GAS strain, dose response, counter-screen for streptokinase expression inhibitor project, luminescence, kanamycin, BacTiterGlo, confirmation (AID 1900); format: functional, organism-based
[23] = system: HEK293; assay: optical interference in Abeta FP readout, dose response, artefact control for IDE activator project, biochemical, fluorescence polarization (AID 588442); format: functional, cell-based; settings: Homo sapiens
[24] = target: T6, Insulin-degrading enzyme; assay: activators of recombinant IDE enzyme, dose response, counter-screen for IDE activator project, biochemical, fluorescence polarization (AID 588681)
[25] = cytotoxicity in HEK-293T cells, dose response, cytotoxicity control for TCR NF-kB inhibitor project, luminescence, T-cell screen hits (AID 489026); format: functional, cell-based;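 also: cells exposed to compound about 14 hours before the viability readout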
[26] = cells; format: functional, cell-based; remark: listed apart in the source
[27] = target: Heat shock protein HSP 90-alpha (Homo sapiens, UniProt P07900); format: functional, organism-based
[28] = C. albicans growth with fluconazole, confirmation, fluorescence, retest (AID 2467); format: functional, cell-based
[29] = cytotoxicity toward NIH3T3 fibroblasts, dose response, counter-screen, cell-based, ATP luminescence, mouse fibroblasts (AID 2010); format: functional;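 also: cells exposed to compound for about 90 hours before reading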
[30] = system: HEK293; assay: HEK cell cytotoxicity by LDH release, dose response, cytotoxicity control for IDE activator project, fluorescence, HEK cells (AID 588440); format: functional, cell-based; settings: Homo sapiens;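 also: cytotoxicity by LDH release measuring loss of membrane integrity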
[31] = system: Streptococcus; assay: Group A Streptococcus viability loss, dose response, counter-screen for streptokinase expression inhibitor project, luminescence, BacTiterGlo (AID 1915); format: functional, organism-based;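 also: potency for reduction of bacterial viability or growth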
[32] = target: T7, RNA-binding protein pos-1 (Caenorhabditis elegans, UniProt G5EF15); assay: inhibitors of POS-1/mex-3 RNA binding, dose response, biochemical, fluorescence polarization (AID 1964);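 also: purified POS-1 fused to maltose binding protein made in E. coli; potency of compounds blocking POS-1 binding to fluorescent RNA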
T7 sequence (G5EF15 whole entry): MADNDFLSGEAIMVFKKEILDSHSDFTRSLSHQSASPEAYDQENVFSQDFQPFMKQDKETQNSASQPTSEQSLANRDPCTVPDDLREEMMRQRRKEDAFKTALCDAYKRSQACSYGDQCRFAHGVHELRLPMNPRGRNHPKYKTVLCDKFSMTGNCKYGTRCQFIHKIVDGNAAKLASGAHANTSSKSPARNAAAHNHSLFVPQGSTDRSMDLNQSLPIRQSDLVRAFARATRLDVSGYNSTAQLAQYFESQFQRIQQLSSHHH

[33] = NIH-3T3 fibroblast cytotoxicity, dose response, cytotoxicity control, cell-based, fluorescence, Alamar Blue, secondary assay (AID 2327); format: functional;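 also: NIH-3T3 mouse fibroblasts cultured with fluconazole at 8 µg/mL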
[34] = target: T8, ATP-dependent translocase ABCB1 (Homo sapiens, UniProt P08183); assay: ABCB1 efflux inhibitor potency, dose response, Jurkat-DNR cells, JC-1, flow cytometry, set 2 (AID 504569); format: functional; settings: read-out: EC50_MICROM_;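 also: potency of pump inhibitors that raise cellular JC-1 green fluorescence up to the nicardipine level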
[35] = target: T8, ATP-dependent translocase ABCB1; assay: ABCG2 efflux pump inhibitor potency, dose response, Ig-MXP3 cells, JC-1, flow cytometry, set 2 (AID 504566); format: functional; settings: read-out: EC50_MICROM_;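 also: flow cytometry median green fluorescence of retained JC-1 dye; potency of efflux pump inhibition measured as rising substrate retention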
[36] = target: Protein Wnt-3a (Mus musculus, UniProt P27467); assay: Wnt3a-driven reporter signaling inhibition, dose response, selectivity assay for Gli-SUFU antagonist project, Wnt-LIGHT cells, luminescence (AID 651570); format: functional; settings: read-out: IC50_Mean;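 also: Wnt-LIGHT reporter cells stimulated with conditioned medium from Wnt3a-producing cells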
Chain of Protein Wnt-3a (P27467 whole entry): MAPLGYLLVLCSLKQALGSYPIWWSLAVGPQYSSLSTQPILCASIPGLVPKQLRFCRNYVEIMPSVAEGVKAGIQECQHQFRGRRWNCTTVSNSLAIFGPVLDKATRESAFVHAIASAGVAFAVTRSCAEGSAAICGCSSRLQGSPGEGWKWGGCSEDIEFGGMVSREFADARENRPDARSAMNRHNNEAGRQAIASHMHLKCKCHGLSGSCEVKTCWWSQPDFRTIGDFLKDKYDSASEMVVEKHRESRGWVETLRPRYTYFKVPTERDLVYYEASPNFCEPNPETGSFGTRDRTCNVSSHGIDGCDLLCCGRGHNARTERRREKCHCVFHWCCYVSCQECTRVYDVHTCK

T4 sequence (P07237 whole entry): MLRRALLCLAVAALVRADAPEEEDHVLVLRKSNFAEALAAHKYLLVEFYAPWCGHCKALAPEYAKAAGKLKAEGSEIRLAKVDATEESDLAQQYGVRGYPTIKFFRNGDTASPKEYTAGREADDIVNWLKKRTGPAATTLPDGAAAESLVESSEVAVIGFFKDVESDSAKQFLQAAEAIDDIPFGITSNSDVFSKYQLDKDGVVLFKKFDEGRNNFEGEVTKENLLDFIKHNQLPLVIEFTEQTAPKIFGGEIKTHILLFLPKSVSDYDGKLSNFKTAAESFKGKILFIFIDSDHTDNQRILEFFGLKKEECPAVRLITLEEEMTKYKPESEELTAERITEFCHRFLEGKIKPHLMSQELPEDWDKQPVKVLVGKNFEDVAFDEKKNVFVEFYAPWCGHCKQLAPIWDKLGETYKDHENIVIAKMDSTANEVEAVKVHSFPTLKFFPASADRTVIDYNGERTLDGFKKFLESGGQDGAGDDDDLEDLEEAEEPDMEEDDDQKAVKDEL
T8 sequence (P08183 whole entry): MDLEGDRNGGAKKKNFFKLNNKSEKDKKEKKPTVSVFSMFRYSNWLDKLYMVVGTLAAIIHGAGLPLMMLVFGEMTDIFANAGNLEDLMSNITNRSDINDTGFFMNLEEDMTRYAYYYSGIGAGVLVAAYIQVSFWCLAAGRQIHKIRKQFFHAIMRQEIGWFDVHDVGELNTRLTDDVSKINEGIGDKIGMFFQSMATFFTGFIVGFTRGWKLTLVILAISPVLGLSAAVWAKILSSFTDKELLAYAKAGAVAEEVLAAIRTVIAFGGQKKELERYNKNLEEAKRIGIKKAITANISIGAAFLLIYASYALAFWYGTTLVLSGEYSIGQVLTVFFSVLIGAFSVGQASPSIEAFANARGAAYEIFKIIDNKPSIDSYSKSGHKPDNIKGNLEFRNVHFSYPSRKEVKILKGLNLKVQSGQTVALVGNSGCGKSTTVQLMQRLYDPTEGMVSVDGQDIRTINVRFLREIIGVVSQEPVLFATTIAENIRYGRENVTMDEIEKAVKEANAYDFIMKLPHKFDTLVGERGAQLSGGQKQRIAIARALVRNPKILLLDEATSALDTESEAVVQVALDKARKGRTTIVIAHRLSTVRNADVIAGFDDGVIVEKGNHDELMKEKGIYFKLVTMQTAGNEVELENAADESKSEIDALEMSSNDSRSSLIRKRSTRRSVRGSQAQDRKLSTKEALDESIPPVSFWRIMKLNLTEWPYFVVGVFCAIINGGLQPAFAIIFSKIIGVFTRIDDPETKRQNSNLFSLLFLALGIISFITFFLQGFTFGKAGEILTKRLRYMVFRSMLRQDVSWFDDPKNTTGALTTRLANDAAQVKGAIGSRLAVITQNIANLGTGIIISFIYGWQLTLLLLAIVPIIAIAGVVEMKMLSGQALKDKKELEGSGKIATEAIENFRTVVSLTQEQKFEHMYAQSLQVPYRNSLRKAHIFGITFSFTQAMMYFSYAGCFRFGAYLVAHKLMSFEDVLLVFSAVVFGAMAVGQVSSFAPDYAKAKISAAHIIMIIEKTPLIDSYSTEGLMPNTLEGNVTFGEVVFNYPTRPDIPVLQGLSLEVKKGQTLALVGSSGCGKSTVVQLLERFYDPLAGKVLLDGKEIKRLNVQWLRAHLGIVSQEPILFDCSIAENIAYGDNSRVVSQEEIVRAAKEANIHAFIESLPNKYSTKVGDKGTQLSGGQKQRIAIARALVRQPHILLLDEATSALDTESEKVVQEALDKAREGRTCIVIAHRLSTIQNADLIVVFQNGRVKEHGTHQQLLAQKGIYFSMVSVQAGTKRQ
Chain of Diacylglycerol lipase-beta (Q91WC9 whole entry): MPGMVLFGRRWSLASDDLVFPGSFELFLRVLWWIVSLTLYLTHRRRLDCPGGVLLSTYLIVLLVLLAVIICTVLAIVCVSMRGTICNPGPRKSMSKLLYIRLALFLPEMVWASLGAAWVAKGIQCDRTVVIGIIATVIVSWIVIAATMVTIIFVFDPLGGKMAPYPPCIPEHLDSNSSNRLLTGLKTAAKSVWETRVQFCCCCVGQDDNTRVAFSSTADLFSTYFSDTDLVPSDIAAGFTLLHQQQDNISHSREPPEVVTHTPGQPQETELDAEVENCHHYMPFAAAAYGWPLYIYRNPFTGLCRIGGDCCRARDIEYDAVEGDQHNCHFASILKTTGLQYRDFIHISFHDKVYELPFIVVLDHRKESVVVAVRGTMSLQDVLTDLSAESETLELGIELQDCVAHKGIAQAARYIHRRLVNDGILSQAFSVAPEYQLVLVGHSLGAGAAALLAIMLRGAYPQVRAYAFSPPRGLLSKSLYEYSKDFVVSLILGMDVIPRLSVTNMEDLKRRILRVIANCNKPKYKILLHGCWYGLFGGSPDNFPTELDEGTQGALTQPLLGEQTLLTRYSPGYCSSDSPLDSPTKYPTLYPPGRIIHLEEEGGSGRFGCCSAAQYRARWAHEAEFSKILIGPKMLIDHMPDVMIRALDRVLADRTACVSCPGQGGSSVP
Chain of FAD-linked sulfhydryl oxidase ALR (P55789 whole entry): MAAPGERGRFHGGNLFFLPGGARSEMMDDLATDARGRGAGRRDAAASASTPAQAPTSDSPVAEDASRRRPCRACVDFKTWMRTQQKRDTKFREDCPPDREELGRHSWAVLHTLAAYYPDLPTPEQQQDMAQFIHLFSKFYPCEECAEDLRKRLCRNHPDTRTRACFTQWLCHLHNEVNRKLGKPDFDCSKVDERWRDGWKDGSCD
Chain of Hepatocyte nuclear factor 4-alpha (P41235 whole entry, the tested form may be a part): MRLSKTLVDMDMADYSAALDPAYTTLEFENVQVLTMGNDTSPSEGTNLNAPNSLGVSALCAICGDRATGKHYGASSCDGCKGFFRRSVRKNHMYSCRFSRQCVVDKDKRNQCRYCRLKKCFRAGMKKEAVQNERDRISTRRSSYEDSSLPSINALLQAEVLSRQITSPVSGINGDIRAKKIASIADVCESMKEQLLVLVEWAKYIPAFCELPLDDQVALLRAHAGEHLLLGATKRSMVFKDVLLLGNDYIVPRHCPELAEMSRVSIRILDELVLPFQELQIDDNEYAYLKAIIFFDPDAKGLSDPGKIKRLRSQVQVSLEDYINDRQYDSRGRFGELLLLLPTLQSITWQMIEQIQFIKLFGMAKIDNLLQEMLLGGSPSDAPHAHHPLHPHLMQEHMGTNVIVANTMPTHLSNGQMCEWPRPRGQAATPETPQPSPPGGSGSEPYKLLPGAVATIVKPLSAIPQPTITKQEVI
Chain of Aryl hydrocarbon receptor (P35869 whole entry): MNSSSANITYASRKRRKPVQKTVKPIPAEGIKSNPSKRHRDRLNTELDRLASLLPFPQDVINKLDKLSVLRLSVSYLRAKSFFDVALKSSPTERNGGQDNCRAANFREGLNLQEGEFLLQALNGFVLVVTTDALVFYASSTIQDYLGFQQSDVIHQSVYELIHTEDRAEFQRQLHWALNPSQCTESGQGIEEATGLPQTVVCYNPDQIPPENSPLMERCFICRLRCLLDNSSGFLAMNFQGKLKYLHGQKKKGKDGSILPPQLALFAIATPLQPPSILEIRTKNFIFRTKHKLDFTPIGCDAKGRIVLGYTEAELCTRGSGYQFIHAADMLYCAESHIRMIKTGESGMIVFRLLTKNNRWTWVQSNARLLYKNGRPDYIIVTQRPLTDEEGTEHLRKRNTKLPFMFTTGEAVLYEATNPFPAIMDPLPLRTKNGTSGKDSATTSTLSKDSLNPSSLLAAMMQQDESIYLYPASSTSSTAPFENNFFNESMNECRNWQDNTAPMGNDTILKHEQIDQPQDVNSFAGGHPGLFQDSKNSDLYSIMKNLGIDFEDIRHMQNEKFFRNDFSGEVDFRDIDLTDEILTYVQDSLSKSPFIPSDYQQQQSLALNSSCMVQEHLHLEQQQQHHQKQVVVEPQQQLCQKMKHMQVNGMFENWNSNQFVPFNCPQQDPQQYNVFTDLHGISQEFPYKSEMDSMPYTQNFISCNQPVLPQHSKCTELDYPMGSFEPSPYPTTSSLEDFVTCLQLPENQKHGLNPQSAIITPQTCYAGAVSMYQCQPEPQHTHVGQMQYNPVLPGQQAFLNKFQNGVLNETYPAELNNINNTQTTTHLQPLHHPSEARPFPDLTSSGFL
Chain of 72 kDa type IV collagenase (P08253 whole entry): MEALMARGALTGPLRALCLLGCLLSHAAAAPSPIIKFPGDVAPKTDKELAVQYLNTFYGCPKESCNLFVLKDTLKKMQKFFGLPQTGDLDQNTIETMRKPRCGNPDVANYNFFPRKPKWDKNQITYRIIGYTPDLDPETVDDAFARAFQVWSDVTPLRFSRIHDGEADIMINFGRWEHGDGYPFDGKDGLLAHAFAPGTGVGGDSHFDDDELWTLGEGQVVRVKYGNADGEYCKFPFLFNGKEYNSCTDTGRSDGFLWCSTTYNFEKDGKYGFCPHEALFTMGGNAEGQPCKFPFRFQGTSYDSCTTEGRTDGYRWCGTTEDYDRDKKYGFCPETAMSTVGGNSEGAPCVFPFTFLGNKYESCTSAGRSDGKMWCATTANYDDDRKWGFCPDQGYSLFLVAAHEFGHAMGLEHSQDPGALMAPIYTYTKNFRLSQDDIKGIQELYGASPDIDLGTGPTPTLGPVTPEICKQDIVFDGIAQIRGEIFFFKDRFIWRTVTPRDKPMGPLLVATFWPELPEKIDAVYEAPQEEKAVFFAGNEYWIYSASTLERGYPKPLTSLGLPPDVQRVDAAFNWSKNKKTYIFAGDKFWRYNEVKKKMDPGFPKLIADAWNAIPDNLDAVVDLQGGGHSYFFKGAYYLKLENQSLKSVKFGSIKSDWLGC

CCSc1ccc2c(c1)N(CCCN1CCN(C)CC1)c1ccccc1S2
AC50 [1]: 14.9 µM (active)
AC50 [2]: 1.09 µM (active)
IC50 [3]: > 20 µM (inactive)
CC50 [4]: 16.3 µM (active)
IC50 [5]: 29.9 µM (inactive)

O=C(Nc1cccc2[nH]ncc12)c1ccc(F)cc1
IC50 [6]: > 79 µM (inactive)
AC50 [7]: 52.8 µM (active)
AC50 [8]: 14.1 µM (inconclusive)
IC50 [9]: 13.8 µM (inactive)

C[C@@H]1O[C@@H](Oc2c(-c3ccc(O)c(O)c3)oc3cc(O)cc(O)c3c2=O)[C@H](O)[C@H](O)[C@H]1O
AC50 [10]: 5.59 µM (active)

C[C@H]1CN([C@@H](C)CO)C(=O)c2cccc(NS(C)(=O)=O)c2O[C@H]1CN(C)Cc1ccc(Oc2ccccc2)cc1
AC50 [10]: < 0.003 µM (active)
AC50 [11]: 3 nM (active)

CCCCOCC1CO1 (stereo unspecified)
AC50 [12]: 56.2 µM (inconclusive)

O=C(N1CCCCC1Cc1ccccc1)n1cc(-c2ccc(-c3ccccc3C(F)(F)F)cc2)nn1 (stereo unspecified)
IC50 [13]: 58 nM (active)

COc1ccc(NC(=O)CCn2c(=S)[nH]c3ccccc3c2=O)cc1Cl
IC50 [14]: > 100 µM (inactive)
IC50 [15]: 68.3 µM (inactive)
IC50 [16]: 12 µM (active)
IC50 [17]: 26.3 µM (active)
IC50 [18]: 4.32 µM (active)

O=C(N/N=C\c1c(O)ccc2ccccc12)c1cncc(Br)c1
EC50 [19]: 792 nM (active)
EC50 [20]: 10.3 µM (active)
EC50 [21]: > 54.7 µM (inactive)
EC50 [22]: 1.4 µM (active)
EC50 [23]: 12.4 µM (inactive)
EC50 [24]: > 54.7 µM (inactive)
IC50 [25]: > 80 µM (inactive)
EC50 [26]: 86.8 µM (active)
AC50 [27]: 4.06 µM (active)
EC50 [28]: 342 nM (active)
EC50 [29]: 7.07 µM (active)
IC50 [30]: > 89.3 µM (inactive)
EC50 [31]: 3.59 µM (active)
EC50 [32]: > 300 µM (not active)
EC50 [33]: 8.52 µM (inconclusive)

CCC1CCCCN1S(=O)(=O)c1ccc(S(=O)(=O)N2CCN(S(=O)(=O)CC)CC2)cc1 (stereo unspecified)
EC50 [21]: > 54.7 µM (inactive)
EC50 [23]: > 55.9 µM (inactive)
EC50 [24]: > 54.7 µM (inactive)
IC50 [30]: > 9.91 µM (active)

O=C(c1ccoc1)N1CCN(c2cc(-c3ccccc3)nc3cc(-c4cccc(Cl)c4)nn23)CC1
EC50 [34]: 9.03 µM (active)
EC50 [35]: 1 µM (active)

Cc1cc(Nc2ccc([N+](=O)[O-])cc2)c2ccccc2n1
IC50 [36]: 14.1 µM (active)
